Laboratory results: the supplement of paper PMC11061612

Assays:
MK-2206 = compound: NC1(c2ccc(-c3nc4ccn5c(=O)[nH]nc5c4cc3-c3ccccc3)cc2)CCC1 [MK-2206]; details: max 10 µM
How it was run: (§1)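 Following 24 hours at 37°C and 5% CO2, cancer cell lines in 1536-well plates with 7.5 μl DMEM/F12 or RPMI and 10% FBS were dosed for 72 hours, final DMSO typically being 0.2%. CellTiter-Glo 2.0 luminescence, scaled between blank-well and DMSO-well means, gave the viability readout. Dose responses were fitted to a two-parameter logistic curve with a non-linear mixed effects model, and the single-agent IC50 was derived from this fit.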

AZD2811 = compound: CCN(CCO)CCCOc1ccc2c(Nc3cc(CC(=O)Nc4cccc(F)c4)[nH]n3)ncnc2c1 [AZD2811]; details: max 1 µM
How it was run: as §1

AZD5991 = compound: Cc1c2c(nn1C)CSCc1cc(n(C)n1)CSc1cc(c3ccccc3c1)OCCCc1c(C(=O)O)n(C)c3c-2c(Cl)ccc13 [AZD5991]; details: max 1 µM
How it was run: as §1

Gefitinib = compound: COc1cc2ncnc(Nc3ccc(F)c(Cl)c3)c2cc1OCCCN1CCOCC1 [Gefitinib]; details: max 10 µM
How it was run: as §1

AZD5153 = compound: COc1nnc2ccc(N3CCC(c4ccc(OCCN5CCN(C)C(=O)[C@H]5C)cc4)CC3)nn12 [AZD5153]; details: max 1 µM
How it was run: as §1

SN-38 = compound: CCc1c2c(nc3ccc(O)cc13)-c1cc3c(c(=O)n1C2)COC(=O)[C@]3(O)CC [SN-38]; details: max 0.3 µM
How it was run: as §1

Lapatinib = compound: CS(=O)(=O)CCNCc1ccc(-c2ccc3ncnc(Nc4ccc(OCc5cccc(F)c5)c(Cl)c4)c3c2)o1 [Lapatinib]; details: max 10 µM
How it was run: as §1

Prexasertib = compound: COc1cccc(OCCCN)c1-c1cc(Nc2cnc(C#N)cn2)n[nH]1 [Prexasertib]; details: max 1 µM
How it was run: as §1

Doxorubicin = compound: COc1cccc2c1C(=O)c1c(O)c3c(c(O)c1C2=O)C[C@@](O)(C(=O)CO)C[C@@H]3O[C@H]1C[C@H](N)[C@H](O)[C@H](C)O1 [Doxorubicin]; details: max 1 µM
How it was run: as §1

AZD7648 = compound: Cc1cc2ncnn2cc1Nc1ncc2c(n1)n(C1CCOCC1)c(=O)n2C [AZD7648]; details: max 10 µM
How it was run: as §1

Venetoclax = compound: CC1(C)CCC(CN2CCN(c3ccc(C(=O)NS(=O)(=O)c4ccc(NCC5CCOCC5)c([N+](=O)[O-])c4)c(Oc4cnc5[nH]ccc5c4)c3)CC2)=C(c2ccc(Cl)cc2)C1 [Venetoclax]; details: max 1 µM
How it was run: as §1

Dasatinib = compound: CC1=C(C(=CC=C1)Cl)NC(=O)C2=CN=C(S2)NC3=CC(=NC(=N3)C)N4CCN(CC4)CCO [Dasatinib]; details: max 2 µM
How it was run: as §1

Crizotinib = compound: C[C@@H](Oc1cc(-c2cnn(C3CCNCC3)c2)cnc1N)c1c(Cl)ccc(F)c1Cl [Crizotinib]; details: max 10 µM
How it was run: as §1

Capivasertib = compound: C1CN(CCC1(C(=O)N[C@@H](CCO)C2=CC=C(C=C2)Cl)N)C3=NC=NC4=C3C=CN4 [Capivasertib]; details: max 10 µM
How it was run: as §1

AZD6738 = compound: C[C@@H]1COCCN1C2=NC(=NC(=C2)C3(CC3)[S@](=N)(=O)C)C4=C5C=CNC5=NC=C4 [AZD6738]; details: max 10 µM
How it was run: as §1

Taselisib = compound: Cc1nc(-c2cn3c(n2)-c2ccc(-c4cnn(C(C)(C)C(N)=O)c4)cc2OCC3)n(C(C)C)n1 [Taselisib]; details: max 10 µM
How it was run: as §1

AZD4320 = compound: CN(CC[C@H](CSC1=CC=CC=C1)NC2=C(C=C(C=C2)S(=O)(=O)NC(=O)C3=CC=C(C=C3)N4CCC(CC4)[C@H](C5=CC=CC=C5C6=CC=C(C=C6)Cl)O)S(=O)(=O)C(F)(F)F)CCO [AZD4320]; details: max 1 µM
How it was run: as §1

AZD0156 = compound: CN(C)CCCOc1ccc(-c2ccc3ncc4c(c3c2)n(C2CCOCC2)c(=O)n4C)cn1 [AZD0156]; details: max 3 µM
How it was run: as §1

Savolitinib = compound: C[C@@H](c1ccc2nccn2c1)n1nnc2ncc(-c3cnn(C)c3)nc21 [Savolitinib]; details: max 1 µM
How it was run: as §1

Selumetinib = compound: Cn1cnc2c(F)c(Nc3ccc(Br)cc3Cl)c(C(=O)NOCCO)cc21 [Selumetinib]; details: max 10 µM
How it was run: as §1

Alisertib = compound: COc1cc(Nc2ncc3c(n2)-c2ccc(Cl)cc2C(c2c(F)cccc2OC)=NC3)ccc1C(=O)O [Alisertib]; details: max 10 µM
How it was run: as §1

SG3199 = compound: CC1=CN2[C@@H](C1)C=NC3=CC(=C(C=C3C2=O)OC)OCCCCCOC4=C(C=C5C(=C4)N=C[C@@H]6CC(=CN6C5=O)C)OC [SG3199]; details: max 0.001 µM
How it was run: as §1

AZD1390 = compound: CC(C)n1c(=O)n(C)c2cnc3cc(F)c(-c4ccc(OCCCN5CCCCC5)nc4)cc3c21 [AZD1390]; details: max 0.3 µM
How it was run: as §1

Trametinib = compound: CC(=O)Nc1cccc(-n2c(=O)n(C3CC3)c(=O)c3c(Nc4ccc(I)cc4F)n(C)c(=O)c(C)c32)c1 [Trametinib]; details: max 1 µM
How it was run: as §1

Palbociclib = compound: CC(=O)c1c(C)c2cnc(Nc3ccc(N4CCNCC4)cn3)nc2n(C2CCCC2)c1=O [Palbociclib]; details: max 10 µM
How it was run: as §1

AZD8186 = compound: C[C@@H](Nc1cc(F)cc(F)c1)c1cc(C(=O)N(C)C)cc2c(=O)cc(N3CCOCC3)oc12 [AZD8186]; details: max 3 µM
How it was run: as §1

AZD1775 = compound: C=CCn1c(=O)c2cnc(Nc3ccc(N4CCN(C)CC4)cc3)nc2n1-c1cccc(C(C)(C)O)n1 [AZD1775]; details: max 3 µM
How it was run: as §1

Olaparib = compound: O=C(c1cc(Cc2n[nH]c(=O)c3ccccc23)ccc1F)N1CCN(C(=O)C2CC2)CC1 [Olaparib]; details: max 10 µM
How it was run: as §1

Cell Line: SBC-5 (Small Cell Lung Carcinoma)
- IC50, cell viability 72 h (MK-2206): > 10000 nM
- IC50, cell viability 72 h (AZD2811): > 1000 nM
- IC50, cell viability 72 h (AZD5991): > 1000 nM
- IC50, cell viability 72 h (Gefitinib): > 10000 nM
- IC50, cell viability 72 h (AZD5153): 507 nM
- IC50, cell viability 72 h (SN-38): 20.2 nM
- IC50, cell viability 72 h (Lapatinib): > 10000 nM
- IC50, cell viability 72 h (Prexasertib): 79.5 nM
- IC50, cell viability 72 h (Doxorubicin): > 1000 nM
- IC50, cell viability 72 h (AZD7648): > 10000 nM
- IC50, cell viability 72 h (Venetoclax): > 1000 nM
- IC50, cell viability 72 h (Dasatinib): > 2000 nM
- IC50, cell viability 72 h (Crizotinib): 7270 nM
- IC50, cell viability 72 h (Capivasertib): > 10000 nM
- IC50, cell viability 72 h (AZD6738): 5870 nM
- IC50, cell viability 72 h (Taselisib): 4640 nM
- IC50, cell viability 72 h (AZD4320): > 1000 nM
- IC50, cell viability 72 h (AZD0156): > 3000 nM
- IC50, cell viability 72 h (Savolitinib): > 1000 nM
- IC50, cell viability 72 h (Selumetinib): > 10000 nM
- IC50, cell viability 72 h (Alisertib): 3250 nM
- IC50, cell viability 72 h (SG3199): > 1 nM
- IC50, cell viability 72 h (AZD1390): > 300 nM
- IC50, cell viability 72 h (Trametinib): > 1000 nM
- IC50, cell viability 72 h (Palbociclib): > 10000 nM
- IC50, cell viability 72 h (AZD8186): > 3000 nM
- IC50, cell viability 72 h (AZD1775): 1140 nM
- IC50, cell viability 72 h (Olaparib): > 10000 nM

Cell Line: SCC90 (Head and Neck Carcinoma)
- IC50, cell viability 72 h (MK-2206): 8220 nM
- IC50, cell viability 72 h (AZD2811): > 1000 nM
- IC50, cell viability 72 h (AZD5991): 266 nM
- IC50, cell viability 72 h (Gefitinib): 970 nM
- IC50, cell viability 72 h (AZD5153): > 1000 nM
- IC50, cell viability 72 h (SN-38): > 300 nM
- IC50, cell viability 72 h (Lapatinib): 882 nM
- IC50, cell viability 72 h (Prexasertib): 122 nM
- IC50, cell viability 72 h (Doxorubicin): > 1000 nM
- IC50, cell viability 72 h (AZD7648): > 10000 nM
- IC50, cell viability 72 h (Venetoclax): > 1000 nM
- IC50, cell viability 72 h (Dasatinib): > 2000 nM
- IC50, cell viability 72 h (Crizotinib): > 10000 nM
- IC50, cell viability 72 h (Capivasertib): 2300 nM
- IC50, cell viability 72 h (AZD6738): > 10000 nM
- IC50, cell viability 72 h (Taselisib): 1900 nM
- IC50, cell viability 72 h (AZD4320): > 1000 nM
- IC50, cell viability 72 h (AZD0156): > 3000 nM
- IC50, cell viability 72 h (Savolitinib): > 1000 nM
- IC50, cell viability 72 h (Selumetinib): 497 nM
- IC50, cell viability 72 h (Alisertib): 7380 nM
- IC50, cell viability 72 h (SG3199): > 1 nM
- IC50, cell viability 72 h (AZD1390): > 300 nM
- IC50, cell viability 72 h (Trametinib): 7.16 nM
- IC50, cell viability 72 h (Palbociclib): > 10000 nM
- IC50, cell viability 72 h (AZD8186): > 3000 nM
- IC50, cell viability 72 h (AZD1775): > 3000 nM
- IC50, cell viability 72 h (Olaparib): > 10000 nM

Cell Line: SK-N-DZ (Neuroblastoma)
- IC50, cell viability 72 h (AZD2811): > 1000 nM
- IC50, cell viability 72 h (AZD5991): > 1000 nM
- IC50, cell viability 72 h (Gefitinib): > 10000 nM
- IC50, cell viability 72 h (AZD5153): 294 nM
- IC50, cell viability 72 h (SN-38): 24.7 nM
- IC50, cell viability 72 h (Lapatinib): 5560 nM
- IC50, cell viability 72 h (Prexasertib): 16.9 nM
- IC50, cell viability 72 h (Doxorubicin): 748 nM
- IC50, cell viability 72 h (AZD7648): > 10000 nM
- IC50, cell viability 72 h (Venetoclax): > 1000 nM
- IC50, cell viability 72 h (Dasatinib): > 2000 nM
- IC50, cell viability 72 h (Crizotinib): 1860 nM
- IC50, cell viability 72 h (Capivasertib): > 10000 nM
- IC50, cell viability 72 h (AZD6738): 2390 nM
- IC50, cell viability 72 h (Taselisib): > 10000 nM
- IC50, cell viability 72 h (AZD4320): 628 nM
- IC50, cell viability 72 h (AZD0156): > 3000 nM
- IC50, cell viability 72 h (Savolitinib): > 1000 nM
- IC50, cell viability 72 h (Selumetinib): > 10000 nM
- IC50, cell viability 72 h (Alisertib): 256 nM
- IC50, cell viability 72 h (SG3199): > 1 nM
- IC50, cell viability 72 h (AZD1390): > 300 nM
- IC50, cell viability 72 h (Trametinib): > 1000 nM
- IC50, cell viability 72 h (Palbociclib): 5330 nM
- IC50, cell viability 72 h (AZD8186): > 3000 nM
- IC50, cell viability 72 h (AZD1775): 278 nM
- IC50, cell viability 72 h (Olaparib): > 10000 nM
